Data taken from patent publication US20160219881A1, “HERBICIDALLY ACTIVE 2-HALOGEN-4-ALKYNYL-PHENYL-PYRAZOLIDINE-DIONE OR PYRROLIDINE-DIONE DERIVATIVES” (SYNGENTA LIMITED, priority 2013, published 2016).

Tests used:
Setaria faberi (SETFA) [1] = assay: Test 1A glasshouse assay, post-emergence herbicidal activity; assay type: in vivo; settings: 312 h, 13 days after application, read-out: Post-Emergence Herbicidal Activity (% Phytotoxicity) SET FA
Protocol: (§1) Seeds of a variety of test species are sown in standard soil (usually sandy soil) in pots. After cultivation for one day (pre-emergence) or after 8 days cultivation (post-emergence) under controlled conditions in a glasshouse (at 24/16° C., day/night; 14 hours light; 65% humidity), the plants are sprayed with an aqueous spray solution derived from the formulation of the technical active ingredient (compound) in acetone/water (50:50) solution containing 0.5% Tween 20 (polyoxyethylene sorbitan monolaurate, CAS RN 9005-64-5). The test plants are then grown under controlled conditions in a glasshouse (at 24/16° C., day/night; 14 hours light; 65% humidity) and watered twice daily. 13 days after application of the test compounds, for pre- and post-emergence, the test is evaluated visually for percentage phytotoxicity to each plant (where 100%=total damage to plant; 0%=no damage to plant).
(§2) Alopecurus myosuroides (ALOMY), Setaria faberi (SETFA), Echinochloa crus-galli (ECHCG), Amaranthus retroflexus (AMARE), and Abutilon theophasti Medik. (ABUTH, common English name “velvetleaf”). Of these, Alopecurus myosuroides (ALOMY), Setaria faberi (SETFA), and Echinochloa crus-galli (ECHCG) are grassy monocotyledonous weeds.

[2] = tested on: Abutilon theophasti Medik. (ABUTH); assay: as above; assay type: in vivo; settings: 312 h, 13 days after application, read-out: Post-Emergence Herbicidal Activity (% Phytotoxicity) ABUTH
Protocol: as §1, §2

[3] = tested on: Amaranthus retroflexus (AMARE); assay: as above; assay type: in vivo; settings: 312 h, 13 days after application, read-out: Post-Emergence Herbicidal Activity (% Phytotoxicity) AMARE
Protocol: as §1, §2

[4] = tested on: Echinochloa crus-galli (ECHCG); assay: Test 1A glasshouse assay, pre-emergence herbicidal activity; assay type: in vivo; settings: 312 h, 13 days after application, read-out: Pre-Emergence Herbicidal Activity (% Phytotoxicity) ECHCG
Protocol: as §1
(§3) Alopecurus myosuroides (ALOMY), Setaria faberi (SETFA), Echinochloa crus-galli (ECHCG), Amaranthus retroflexus (AMARE), and Abutilon theophasti Medik. (ABUTH, common English name “velvetleaf”). Of these, Alopecurus myosuroides (ALOMY), Setaria faberi (SETFA), and Echinochloa crus-galli (ECHCG) are grassy monocotyledonous weeds. […]

[5] = tested on: Alopecurus myosuroides (ALOMY); assay: as above; assay type: in vivo; settings: 312 h, 13 days after application, read-out: Pre-Emergence Herbicidal Activity (% Phytotoxicity) ALOMY
Protocol: as §1, §2
(§4) Lolium perenne (LOLPE), Triticum aestivum (TRZAW, winter wheat), Alopecurus myosuroides (ALOMY), Echinochloa crus-galli (ECHCG), and Avena fatua (AVEFA). All these are grassy monocotyledonous weeds and/or (for wheat) grassy crops.

Setaria faberi (SETFA) [6] = assay: as above; assay type: in vivo; settings: 312 h, 13 days after application, read-out: Pre-Emergence Herbicidal Activity (% Phytotoxicity) SET FA
Protocol: as §1, §2

[7] = tested on: Amaranthus retroflexus (AMARE); assay: as above; assay type: in vivo; settings: 312 h, 13 days after application, read-out: Pre-Emergence Herbicidal Activity (% Phytotoxicity) AMARE
Protocol: as §1, §2

[8] = tested on: Echinochloa crus-galli (ECHCG); assay: Test 1A glasshouse assay, post-emergence herbicidal activity; assay type: in vivo; settings: 312 h, 13 days after application, read-out: Post-Emergence Herbicidal Activity (% Phytotoxicity) ECHCG
Protocol: as §1, §3

[9] = tested on: Alopecurus myosuroides (ALOMY); assay: as above; assay type: in vivo; settings: 312 h, 13 days after application, read-out: Post-Emergence Herbicidal Activity (% Phytotoxicity) ALOMY
Protocol: as §1, §3

[10] = tested on: Abutilon theophasti Medik. (ABUTH); assay: Test 1A glasshouse assay, pre-emergence herbicidal activity; assay type: in vivo; settings: 312 h, 13 days after application, read-out: Pre-Emergence Herbicidal Activity (% Phytotoxicity) ABUTH
Protocol: as §1, §2

Avena fatua (AVEFA) [11] = assay: Test 1A glasshouse assay, post-emergence herbicidal activity; assay type: in vivo; settings: 312 h, 250 g/ha, 13 days after application, read-out: Post-Emergence Herbicidal Activity (% Phytotoxicity) AVEFA
Protocol: as §1
(§5) Lolium perenne (LOLPE), Triticum aestivum (TRZAW, winter wheat, variety ‘Hereward’), Alopecurus myosuroides (ALOMY), Echinochloa crus-galli (ECHCG), and Avena fatua (AVEFA). All these are grassy monocotyledonous weeds and/or (for wheat) grassy crops.

Lolium perenne (LOLPE) [12] = assay: as above; assay type: in vivo; settings: 312 h, 250 g/ha, 13 days after application, read-out: Post-Emergence Herbicidal Activity (% Phytotoxicity) LOLPE
Protocol: as §1, §5

[13] = tested on: Triticum aestivum (TRZAW, winter wheat, variety ‘Hereward’); assay: as above; assay type: in vivo; settings: 312 h, 250 g/ha, 13 days after application, read-out: Post-Emergence Herbicidal Activity (% Phytotoxicity) TRZAW
Protocol: as §1, §5

[14] = tested on: Triticum aestivum (TRZAW, winter wheat); assay: Test 1A glasshouse assay, pre-emergence herbicidal activity; assay type: in vivo; settings: 312 h, 250 g/ha, 13 days after application, read-out: Pre-Emergence Herbicidal Activity (% Phytotoxicity) TRZAW
Protocol: as §1, §4

Avena fatua (AVEFA) [15] = assay: as above; assay type: in vivo; settings: 312 h, 250 g/ha, 13 days after application, read-out: Pre-Emergence Herbicidal Activity (% Phytotoxicity) AVEFA
Protocol: as §1, §4

Lolium perenne (LOLPE) [16] = assay: as above; assay type: in vivo; settings: 312 h, 250 g/ha, 13 days after application, read-out: Pre-Emergence Herbicidal Activity (% Phytotoxicity) LOLPE
Protocol: as §1, §4

[17] = tested on: Johnsongrass (Sorghum halepense); settings: gibberellic acid mixed with clethodim; cited from earlier work
volunteer corn = settings: gibberellic acid mixed with clethodim; cited from earlier work

| SMILES | inhibition at 250 g/ha (Setaria faberi (SETFA) [1]) [%] | inhibition at 250 g/ha [2] [%] | inhibition at 250 g/ha [3] [%] | inhibition at 250 g/ha [4] [%] | inhibition at 250 g/ha [5] [%] | inhibition at 250 g/ha (Setaria faberi (SETFA) [6]) [%] | inhibition at 250 g/ha [7] [%] | inhibition at 250 g/ha [8] [%] | inhibition at 250 g/ha [9] [%] | inhibition at 30 g/ha (Setaria faberi (SETFA) [1]) [%] | inhibition at 30 g/ha [2] [%] | inhibition at 30 g/ha [3] [%] | inhibition at 250 g/ha [10] [%] | inhibition at 30 g/ha [8] [%] | inhibition at 30 g/ha [9] [%] | other results |
| --- | --- | --- | --- | --- | --- | --- | --- | --- | --- | --- | --- | --- | --- | --- | --- | --- |
| CC#Cc1ccc(C2C(=O)N(C)N(C)C2=O)c(C)c1 [Compound A2] | 80 | 10 | 100 | 70 | 80 | 90 | 10 | 90 | 70 |  |  |  |  |  |  |  |
| CC#Cc1cc(OC)c(C2C(=O)N(C)N(C)C2=O)c(OC)c1 [Compound A5] | 90 | 0 | 0 | 90 | 90 | 100 | 10 | 100 | 90 | 80 | 0 | 0 | 0 | 90 | 70 |  |
| CC#Cc1cc(C)c(C2C(=O)N(CC)N(CC)C2=O)c(C)c1 [Compound A6] | 80 | 30 | 30 | 80 | 50 | 70 | 70 | 80 | 80 | 70 | 30 | 0 | 30 | 40 | 20 |  |
| CC#Cc1cc(C)c(C2C(=O)N3CCCCN3C2=O)c(C)c1 [Compound A18] | 90 | 80 | 80 | 90 | 100 | 90 | 40 | 100 | 80 | 70 | 70 | 40 | 50 | 20 | 50 | inhibition at 30 g/ha [4]: 60%; inhibition at 30 g/ha [5]: 60%; inhibition at 30 g/ha (Setaria faberi (SETFA) [6]): 50%; inhibition at 30 g/ha [10]: 40%; inhibition at 30 g/ha [7]: 20% |
| CC#Cc1cc(C)c(C2C(=O)N3CCOCCN3C2=O)c(C)c1 [Compound A28] | 100 | 70 | 30 | 100 | 100 | 100 | 30 | 100 | 90 | 70 | 60 | 10 | 10 | 80 | 60 | inhibition at 30 g/ha [4]: 80%; inhibition at 30 g/ha [5]: 70%; inhibition at 30 g/ha (Setaria faberi (SETFA) [6]): 50%; inhibition at 30 g/ha [10]: 10%; inhibition at 30 g/ha [7]: 20% |
| CC#Cc1cc(C)c(C2C(=O)CN(Cc3ccccn3)C2=O)c(C)c1 (stereo not drawn) [Compound A48, 3-(2,6-dimethyl-4-prop-1-ynyl-phenyl)-1-(2-pyridylmethyl)pyrrolidine-2,4-dione] |  |  |  | 80 | 90 |  |  | 70 | 90 |  |  |  |  |  |  | inhibition at 250 g/ha (Avena fatua (AVEFA) [11]): 20%; inhibition at 250 g/ha (Lolium perenne (LOLPE) [12]): 70%; inhibition at 250 g/ha [13]: 30%; inhibition at 250 g/ha [14]: 40%; inhibition at 250 g/ha (Avena fatua (AVEFA) [15]): 40%; inhibition at 250 g/ha (Lolium perenne (LOLPE) [16]): 80% |
| CC#Cc1cc(C)c(-c2c(OC(C)=O)n(C)n(C)c2=O)c(C)c1 [Compound P2] | 90 | 60 | 30 | 100 | 90 | 90 | 70 | 100 | 90 | 40 | 10 | 0 | 0 | 80 | 40 |  |
| CC#Cc1cc(C)c(-c2c(OC(=O)C(C)(C)C)n3n(c2=O)CCCCC3)c(C)c1 [Compound P3, [2-(2,6-dimethyl-4-prop-1-ynyl-phenyl)-1-oxo-6,7,8,9-tetrahydro-5H-pyrazolo[1,2-a]diazepin-3-yl]2,2-dimethylpropanoate] | 70 | 0 |  | 20 | 20 | 70 | 20 | 100 | 50 | 20 | 10 | 0 | 10 | 60 | 40 |  |
| C=C1C[C@]23C[C@@]1(O)CC[C@H]2[C@@]12C=C[C@H](O)[C@@](C)(C(=O)O1)[C@H]2[C@@H]3C(=O)O [gibberellic acid] |  |  |  |  |  |  |  |  |  |  |  |  |  |  |  | control and/or speed of control of Johnsongrass (Sorghum halepense) [17]: increased clethodim's control and/or speed of control; control and/or speed of control of volunteer corn (volunteer corn): increased clethodim's control and/or speed of control |
